Common to all, as to type: cell-based
Experiment [1] relates to Bovine myoblasts. Kind of experiment: Differentiation to mature muscle cells by myogenin immunostaining. As to conditions: LPA 10 or 25 μM added daily in serum-free medium. How it is done:
Isolated bovine myoblasts were plated in a culture medium without adding serum at a culture density of 10,000 cells per well in a 96 well plate in triplicate wells. The cells were allowed to adhere for 24 hours, when LPA was added at a concentration of 0, 10 or 25 μM in serum-free medium. LPA was added daily until harvesting. Myogenin was used as a marker of differentiation to mature muscle cells. To determine the degree of differentiation to mature muscle cells, cultures were fixed in 4% paraformaldehyde for 10 min and then washed with PBS. Cells were incubated with PBS/0.2% BSA/0.1% Triton-X100 for 20 min followed by incubation with an anti-myogenin antibody (Abcam, mouse, 1/150) for 1 h at room temperature. After 3 washes with PBS/0.2% BSA, cells were incubated with secondary antibodies (goat anti-rabbit Alexa488, 1/800; goat anti-mouse Alexa555, 1/800, Invitrogen) for 30 min at room temperature. Nucleus was stained with DAPI.

The test system of experiment [2] is Bovine myoblasts. The experiment is described as follows: Proliferation rate by EdU incorporation (FACS) after LPA. As to conditions: 10 μM LPA, 24 hours; compared to vehicle-treated cells; FIG. 5. As for the experimental part: In another experiment, bovine myoblasts were plated at a culture density of 10,000 cells per well in a 96 well plate in triplicate wells. The cells were allowed to adhere for 24 hours, when 10 μM LPA was added in the medium. Cells were subsequently harvested. After 24 hours, the proliferation rate was measured by EdU incorporation using a commercially available nucleoside pulse labeling kit such as the Click-iT-EdU kit (ThermoFisher). Briefly, cells were treated with 3 μM EdU, incubated at room temperature for 6 hours and detected according to the manufacturer's instructions, Cells were labeled with Alexa Fluor® 647 azide and analyzed using Fluorescence-Activated Cell Sorting (FACS) using 633 nm excitation and a 660/20 nm emission filter.

Experiment [3] relates to Bovine myoblasts. Kind of experiment: Cell count by bright field cell imaging after LPA, subconfluent and confluent cultures. As to conditions: 96 well plate, LPA 0, 10 or 25 μM. As for the experimental part: Bovine myoblasts were isolated from a bovine skeletal muscle tissue using the protocol described above. Isolated myoblasts were plated at a culture density of 2000 (subconfluent) or 10,000 (confluent) cells per well in a 96 well plate in triplicate wells. The cells were allowed to adhere for 24 hours, at which time LPA was added at a concentration of 0, 10 or 25 μM in the medium. Cells were subsequently harvested and counted by bright field cell imaging (Cytation 5 live cell imaging, analyzed with Lionheart software). […] Data shown are mean+/−SD. Significance was determined by the Student's T test.

In the case of lysophosphatidic acid [LPA], the “expression of myogenin (marker of differentiation)” value with Bovine myoblasts [1] is “reduced expression of myogenin”. Besides, the “increase in percentage of cells in the S-phase” value in the experiment on Bovine myoblasts [2] was 216%. In the experiment on Bovine myoblasts [3] (2000 cells per well, FIG. 4A), the “increase of cells in the subconfluent culture” value is given as 309%. Also, the “increase of cells in the confluent culture” value in the experiment on Bovine myoblasts [3] (10,000 cells per well, FIG. 4B) came out at 130%.

For the origin of these results see patent US12709738B2, “Compositions and methods for increasing the culture density of a cellular biomass within a cultivation infrastructure” (The Upside Group Inc., priority 2017, dated 2026).
